Values quoted from earlier work, collected in patent US20220142214A1, “SYNERGISTIC COMPOSITION OF FOOD-BASED AND ORGANIC NUTRIENTS AND METHODS FOR USE AND MANUFACTURE” (priority 2020, published 2022).
Where two headings read alike, the source gives them in different places.

Assays:
B16-BL6 cells [1] = settings: for tumor growth: intraperitoneal administration at time of i.m. injection of B16-BL6 cells
B16-BL6 cells [2] = settings: dose-dependent
[3] = intraperitoneal administration, syngeneic mice

Structure (SMILES) | tumor growth (B16-BL6 cells [1]) | toxicity (B16-BL6 cells [1]; [3]) | number of B16-BL6 colonies in the lungs (B16-BL6 cells [2]) | toxicity (B16-BL6 cells [1]; mouse, in vivo, ip)
O=C(O[C@@H]1Cc2c(O)cc(O)cc2O[C@@H]1c1cc(O)c(O)c(O)c1)c1cc(O)c(O)c(O)c1 [EGCG, Epigallocathechin-3-gallate] | significant, dose-dependent delay of tumor growth | without toxicity | – | –
O=c1cc(-c2ccc(O)cc2)oc2cc(O)cc(O)c12 [apigenin] | significant, dose-dependent delay of tumor growth | without toxicity | significantly decreased | –
CC/C(=C(\c1ccccc1)c1ccc(OCCN(C)C)cc1)c1ccccc1 [tamoxifen] | significant, dose-dependent delay of tumor growth | – | significantly decreased | without toxicity
Oc1ccc(C=Cc2cc(O)cc(O)c2)cc1 [resveratrol] | significant, dose-dependent delay of tumor growth | – | – | without toxicity
O=c1c(O)c(-c2ccc(O)c(O)c2)oc2cc(O)cc(O)c12 [quercetin] | significant, dose-dependent delay of tumor growth | – | significantly decreased | without toxicity
